{"source": "ChEMBL document CHEMBL3507680", "about": "“University of Dundee, Gates Library screen for HepG2 cell viability”", "data": [{"assay": "Human HepG2 cell viability assay in 384 well format", "format": "toxicity, cell-based", "parameters": "dose 125 nL, time 70.5 hour; concentration not given beside the values", "conditions": "HepG2 cells, read-out: Inhibition", "units": {"cytotoxicity at 70.5 h": "%"}, "values": [{"smiles": "Cc1ccccc1C(N)c1ccncc1", "note": "(centres undefined)", "cytotoxicity at 70.5 h": -3.67}, {"smiles": "O[C@@H]1C[C@H]2CN(CC3CCCCC3)[C@H](Cc3ccccc3)CN2C1", "cytotoxicity at 70.5 h": 24.4}, {"smiles": "Cc1nn(C)cc1CN1CCc2nc3sccc3c(=O)n2CC1", "cytotoxicity at 70.5 h": -9.47}, {"smiles": "CCn1cncc1CN1CCc2nc3sccc3c(=O)n2CC1", "cytotoxicity at 70.5 h": -5.29}, {"smiles": "Cc1ccc(-c2nc(C3CCN(C(=O)c4ccn(C)n4)CC3)no2)cn1", "cytotoxicity at 70.5 h": -10.5}, {"smiles": "CCC(=O)N1CCC(c2nc(N3CCCCC3)ncc2S(C)(=O)=O)CC1", "cytotoxicity at 70.5 h": -2.83}, {"smiles": "CCN(CC)C(=O)CN1CCC2(C=Cc3cc(Cl)c(C)cc3O2)CC1", "cytotoxicity at 70.5 h": 7.43}, {"smiles": "CS(=O)(=O)c1cnc(N2CCCC2)nc1C1CCN(C(=O)C2CC2)CC1", "cytotoxicity at 70.5 h": 0.997}, {"smiles": "COc1ccc(C(C)N(C)Cc2c(C(C)C)[nH]c3ncccc23)cc1", "note": "(centres undefined)", "cytotoxicity at 70.5 h": 20.8}, {"smiles": "O=C(NCCCO)C1(CC2CC(c3ccc(F)cc3)=NO2)CCOCC1", "note": "(centres undefined)", "cytotoxicity at 70.5 h": -5.38}, {"smiles": "CCc1ncc(CN2C[C@@H]3C[C@@H](O)CN3C[C@@H]2Cc2ccccc2)cn1", "cytotoxicity at 70.5 h": -5.41}, {"smiles": "Cc1cc(Nc2cnccn2)cc(C2CCCNC2)n1", "note": "(centres undefined)", "cytotoxicity at 70.5 h": -2.88}, {"smiles": "Cc1cc(N(C)C)nc(C2COCCN2Cc2cscn2)n1", "note": "(centres undefined)", "cytotoxicity at 70.5 h": 18}, {"smiles": "Cc1cc(NC2CC3(CCN(Cc4ncccc4F)C3)C2)ncn1", "note": "(centres undefined)", "cytotoxicity at 70.5 h": -3.79}, {"smiles": "Cc1ocnc1C(=O)N(C)[C@@H]1CC[C@@H](Oc2ccccc2)[C@@H]1O", "cytotoxicity at 70.5 h": -5.13}, {"smiles": "Cc1nn(C)cc1S(=O)(=O)N[C@@H]1CCC[C@@H](N2CCCC2)[C@@H]1O", "cytotoxicity at 70.5 h": -9.32}, {"smiles": "Cc1nn(C)cc1S(=O)(=O)N[C@@H]1CC[C@@H](n2ccnc2C)[C@@H]1O", "cytotoxicity at 70.5 h": 17.7}, {"smiles": "Cc1nccn1[C@@H]1CC[C@@H](NC(=O)CCOc2ccccc2)[C@H]1O", "cytotoxicity at 70.5 h": 16.9}, {"smiles": "CN(C)CCn1nc(C2CCN(Cc3ccccc3)C2)c2cccnc21", "note": "(centres undefined)", "cytotoxicity at 70.5 h": 31.8}, {"smiles": "COCC(=O)N1CCCCC1c1nc(CN(C)C(C)=O)cc(N(C)C)n1", "note": "(centres undefined)", "cytotoxicity at 70.5 h": 50.7}, {"smiles": "Nc1ncc(-c2ccc(C(F)(F)F)cc2)c(C2CCCNC2)n1", "note": "(centres undefined)", "cytotoxicity at 70.5 h": 0.61}, {"smiles": "CN1CCN([C@@H]2CN(C(=O)c3cc4ccc(F)cc4[nH]3)C[C@H]2O)CC1", "cytotoxicity at 70.5 h": -3.6}, {"smiles": "CCC(=O)N1CCCCC1c1nc(CN(C)C(C)=O)cc(N(C)C)n1", "note": "(centres undefined)", "cytotoxicity at 70.5 h": -1.37}, {"smiles": "CN(C)[C@@H]1CN(C(=O)c2cc3cccc(F)c3[nH]2)C[C@H]1O", "cytotoxicity at 70.5 h": -2.67}, {"smiles": "Cc1ncc(CNC(=O)Cc2cccs2)c(C2CCCN2C)n1", "note": "(centres undefined)", "cytotoxicity at 70.5 h": -4.94}, {"smiles": "Cc1ncc(CNC(=O)CCc2c(C)noc2C)c(C2CCCN2C)n1", "note": "(centres undefined)", "cytotoxicity at 70.5 h": -3.48}, {"smiles": "O=C(Cc1cccs1)N1CCCCC1c1ccn2ccnc2n1", "note": "(centres undefined)", "cytotoxicity at 70.5 h": -5.26}, {"smiles": "Cc1ncc(CNC(=O)Cc2ccsc2)c(C2CCCN2C)n1", "note": "(centres undefined)", "cytotoxicity at 70.5 h": -5.12}, {"smiles": "Cc1ccccc1CN1CCOC(c2nccc(CN(C)C)n2)C1", "note": "(centres undefined)", "cytotoxicity at 70.5 h": -8.08}, {"smiles": "CN(C)Cc1ccnc(C2CN(CCCc3ccccc3)CCO2)n1", "note": "(centres undefined)", "cytotoxicity at 70.5 h": -6.75}, {"smiles": "CN(C)CC(=O)N1CCCC1c1cncc(Oc2ccc(F)cc2)n1", "note": "(centres undefined)", "cytotoxicity at 70.5 h": 11.5}, {"smiles": "Cc1noc(C)c1-c1cccc(CC2CCN(C(=O)CN)C2)n1", "note": "(centres undefined)", "cytotoxicity at 70.5 h": -4.83}, {"smiles": "Cc1cccc(Nc2nccnc2C2CCCN(CC(=O)N(C)C)C2)n1", "note": "(centres undefined)", "cytotoxicity at 70.5 h": -7.55}, {"smiles": "Nc1nc(C2CCN(C(=O)c3cnco3)CC2)cs1", "cytotoxicity at 70.5 h": -5.18}, {"smiles": "CC(=O)N1CCC(c2nccnc2Nc2ncc(C)s2)CC1", "cytotoxicity at 70.5 h": -10.6}, {"smiles": "CC(C)N(C(=O)Cn1c(-c2ccco2)cc2cccnc21)C(C)C", "cytotoxicity at 70.5 h": -15.1}, {"smiles": "O=C(Cn1c(-c2ccco2)cc2cccnc21)N1CCCC1", "cytotoxicity at 70.5 h": -8.97}, {"smiles": "Cc1csc(C(Cc2ccsc2)NC(=O)CN(C)Cc2ccccn2)n1", "note": "(centres undefined)", "cytotoxicity at 70.5 h": -5}, {"smiles": "CN(CC(=O)NC(Cc1ccsc1)c1cccnc1)Cc1cccnc1", "note": "(centres undefined)", "cytotoxicity at 70.5 h": 19.4}, {"smiles": "CN(C)c1ncc(-c2ccc(C(N)=O)cc2)c(C2CCNC2)n1", "note": "(centres undefined)", "cytotoxicity at 70.5 h": -2.25}, {"smiles": "Cc1cc(CCC(=O)N(C)C)nc(C2CCCCN2)n1", "note": "(centres undefined)", "cytotoxicity at 70.5 h": -5.77}, {"smiles": "COc1cccc(CN(Cc2ncc[nH]2)Cc2ccco2)c1", "cytotoxicity at 70.5 h": -2.53}, {"smiles": "COc1ccc(OC)c(CN(Cc2ccco2)Cc2[nH]cnc2C)c1", "cytotoxicity at 70.5 h": -10.2}, {"smiles": "Cc1c[nH]nc1C1CCCN1Cc1nccn1C", "note": "(centres undefined)", "cytotoxicity at 70.5 h": -4.65}]}]}
